The values below come from patent US4769378A, “Indenopyrimidine aromatase inhibitors” (Eli Lilly and Company, priority 1986, dated 1988).

SMILES strings stand for the structures. Where two headings read alike, the source gives them in different places.

The target in assay [1] is T1, aromatase (Rattus norvegicus, UniProt P22443).
T1 construct: ovarian microsomes are obtained from rats treated with pregnant mares serum gonadotropin; from tissue; host or cells: rat ovary microsomes (rats treated with pregnant mares serum gonadotropin)
T1 sequence (P22443 1-508): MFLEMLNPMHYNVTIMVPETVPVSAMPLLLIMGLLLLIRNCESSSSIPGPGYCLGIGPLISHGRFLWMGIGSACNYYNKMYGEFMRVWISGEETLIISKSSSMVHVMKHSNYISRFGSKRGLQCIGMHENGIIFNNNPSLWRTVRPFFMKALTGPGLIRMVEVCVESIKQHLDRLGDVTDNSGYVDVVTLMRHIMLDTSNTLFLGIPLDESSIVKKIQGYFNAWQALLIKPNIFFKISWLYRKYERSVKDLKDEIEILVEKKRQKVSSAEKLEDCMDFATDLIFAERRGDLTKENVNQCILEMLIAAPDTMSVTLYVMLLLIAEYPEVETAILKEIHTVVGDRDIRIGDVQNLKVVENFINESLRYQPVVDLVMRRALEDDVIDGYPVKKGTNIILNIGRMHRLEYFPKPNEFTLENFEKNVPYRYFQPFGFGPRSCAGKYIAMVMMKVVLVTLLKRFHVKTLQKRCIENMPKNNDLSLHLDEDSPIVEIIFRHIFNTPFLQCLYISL
Description: Aromatase inhibition in the rat ovarian microsome assay. In kind it is biochemical. Particulars: substrate (androstenedione) concentration 0.1 μM; rat ovarian microsomes; read-out: EC50 (concentration of compound required to achieve 50% inhibition of aromatase activity). Here is the method: In this test system, ovarian microsomes are obtained from rats treated with pregnant mares serum gonadotropin. Test compounds are added to reaction vials containing 0.1 μM 4-androstene-3,17-dione, 100,000 dpm 1,2[^3 H]-androstenedione, the microsomes and a NADPH generating system. The concentrations of the inhibitors tested ranged between 5 and 10000 nM. […] Potency is determined based on the concentration of inhibitor in nM required to produce a 50% inhibition of enzyme activity (EC50) when the concentration of substrate (androstenedione) is 0.1 μM.

Assay [2] deals with Estrogen synthesis (aromatization). Description: Estrogen Synthesis Inhibition in Rats.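 For Uterine Wt. %: 100% equals the stimulated control's weight gain over the unstimulated control.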 In kind it is in vivo, immature female Wistar rats. Particulars: Rattus norvegicus, po, 168 h, gavage; for response vs control in vivo at 3 mg/kg: 3 mg/kg × 7 days; for response vs control in vivo at 30 mg/kg: 30 mg/kg × 7 days; for response vs control in vivo at 10 mg/kg: 10 mg/kg × 7 days. On the procedure: By virtue of their ability to inhibit the enzyme aromatase, the compounds of this invention are able to inhibit the synthesis of estrogens in mammals, thereby making the compounds useful in the treatment of estrogen-dependent diseases, such as breast cancer.
Immature female Wistar rats (45-55 grams) were divided into control and test groups of 2-8 animals each. Test compounds were administered for seven days daily by gavage in corn oil. Control animals received corn oil without the test compound. Beginning on the fourth day of the test, all animals treated with the test compound and one half of the control animals were given a subcutaneous injection of 1.0 mg of testosterone propionate in corn oil. The remaining control animals received only an equivalent volume of corn oil. On the seventh day of the test, rats treated with testosterone propionate were injected subcutaneously with 100 μCi of [^3 H]-testosterone in 50 μl of saline-ethanol (3:1).
After two hours, the animals were killed by decapitation. Uteri were isolated, trimmed of extraneous connective tissue, and weighed. […] In the control animals treated with testosterone propionate, estrogens produced by aromatization stimulated the uterus resulting in an increase in weight.
Ovaries from rats treated with [^3 H]-testosterone were excised, cleaned of extraneous tissue, and homogenized in 2.5 ml of a 1.0 mM potassium phosphate buffer containing 3.0 mM MgCl2.6H2 O, 320 mM sucrose, and 0.25% Triton X-100 (polyethylene glycol p-isooctyl phenyl ether, Rohm and Haas) at pH 6.5. The ovarian steroids were extracted with 1.5 ml of 9:1 toluene/ethanol to which had been added 25 to 100 mcg each of unlabelled estradiol, estriol, and estrone, and approximately 1000 dpm of [^14 C]-estradiol. The samples were vortexed, centrifuged at 500×g for 10 minutes, and the organic phase was transferred to a conical vial. Two additional extractions were performed on the residue in the same way. The pooled organic extracts were evaporated for subsequent thin-layer chromatography.
Ovarian proteins were precipitated by the addition of 5.0 ml of ethanol to the remaining aqueous phase. After an overnight incubation at 4° C., the samples were centrifuged at 1500×g for 10 minutes. The supernatant was discarded and the pellet was dissolved in 0.3 N potassium hydroxide. Protein was determined according to the method of Bradford, Analytical Biochemistry, 72, 248 (1976).
The organic residue from each above extraction was redissolved in 9:1 dichloromethane/methanol. The solution of each sample was applied to separate silica gel thin layer chromatography plates which contained a fluorescent indicator. The plates were developed the first dimension with 160:38:1.5:0.5 dichloromethane/ethyl acetate/methanol/acetic acid to within 3 cm of the top of the plate. After air-drying, the plate was developed in the second dimension with 180:19:1 dichloromethane/methanol/ammonium hydroxide. The plate was air-dried and viewed under 254 nm UV light.
The visible spots were marked and the plates were sprayed with primulin (0.001% in 4:1 acetone/water) according to the method of Wright, J. Chromatography, 59, 220 (1971) which allowed for the identification of additional steroids under 365 nm UV light. The spots were scraped from the plate using a glass wool plugged Pasteur pipet attached to a vacuum line. The steroids were eluted directly into scintillation vials by the addition of 0.2 ml of dichloromethane followed by two washes each of 2.0 ml of methanol. The organic solvent was evaporated and 10.0 ml of scintillation fluid (Beckman Ready Solv-NA) was added to the vials. Samples were analyzed by liquid scintillation spectrometry and the corrections were made based on the recoveries of the [^14 C]-steroid.
In Table 2, values for uterine weight are expressed as the respective weights of drug treated (DT), unstimulated corn oil control (UC), and stimulated corn oil control (SC) according to the calculation %=100 (DT-UC)/(SC-UC). […]

The test system of assay [3] is DMBA-induced mammary tumors. Description: DMBA-induced Mammary Tumor Inhibition. In kind it is in vivo, female Sprague-Dawley rats. Here is the method: Mammary tumors were produced in female Sprague-Dawley rats which were 50-60 days old by the gavage administration of 20 mg of 7,12-dimethylbenz[a]anthracene (DMBA). About six weeks after DMBA administration, the mammary glands were palpated at weekly intervals for the appearance of tumors. Whenever one or more tumors appeared and were measurable in an animal, that animal was selected for experimentation. […] Each control and test group contained 5-8 animals. Each test compound was administered in corn oil once daily by gavage. Every experiment included a group of control rats having tumors and were given corn oil vehicle by gavage. […] The area of each tumor was calculated by multiplying the shortest and longest diameters of the tumor. The treatment and measurement of animals continued for 4-6 weeks at which time the final areas of the tumors were determined. For each compound (and control) at each dose level, the change in the mean tumor area was determined. The mean change was analyzed for its significance using Dunnett's t-test.

For assay [4], the system named is breast cancer. Particulars: Cancer Research, Vol. 42, Suppl 8 (1982); cited from earlier work.
Setting [5] is: 100 (DT-UC)/(SC-UC), read-out: Uterine Wt. %.
The mark [6] stands for this setting: ovaries, percent of testosterone-treated controls, read-out: % steroid concentration, estradiol.
[7] abbreviates: ovaries, percent of testosterone-treated controls, read-out: % steroid concentration, estrone.

As for `Clc1ccc(C2c3ccccc3-c3ncncc32)cc1` (centres unmarked) [Example 2, 5-(4-chlorophenyl)-5H-indeno[1,2-d]pyrimidine], the EC50 in assay [1] amounted to 21 nM. For the same compound, the response vs control in vivo at 3 mg/kg in assay [2] (setting [5]) is 49.1%; in assay [2] (setting [6]) it was 40.5%; in assay [2] (setting [7]), 106%. The response vs control in vivo at 30 mg/kg amounted to 33.3% in assay [2] (setting [5]), 19.4% in assay [2] (setting [6]) and 83.2% in assay [2] (setting [7]). The “Final Tumor Area ± S.E.” value in assay [3] (Test II, 10 mg/kg daily by gavage, 4 weeks, control 698 ± 78) turned out to be 287 ± 94 mm^2; in assay [3] (Test II, 30 mg/kg daily by gavage, 4 weeks, control 698 ± 78), 814 ± 223 mm^2; in assay [3] (Test II, 50 mg/kg daily by gavage, 4 weeks, control 698 ± 78), 552 ± 177 mm^2.

As to `C[C@]12CCC(=O)C=C1CC[C@@H]1[C@@H]2CC[C@]2(C)OC(=O)CC[C@@H]12` [testololactone], the “effect in treatment of breast cancer” value in assay [4] is on record as “beneficial effect in treatment of breast cancer”.

As to `Clc1ccc(C2c3ccc(Cl)cc3-c3ncncc32)cc1` (centres unmarked) [Example 1, 8-chloro-5-(4-chlorophenyl)-5H-indeno[1,2-d]pyrimidine], the EC50 in assay [1] amounted to 24 nM. Further, the response vs control in vivo at 3 mg/kg in assay [2] (setting [5]) amounted to 50.2%; in assay [2] (setting [6]), 31.5%; in assay [2] (setting [7]) it was 31.5%. Also, the values for the response vs control in vivo at 10 mg/kg in assay [2] (setting [5]), in assay [2] (setting [6]) and in assay [2] (setting [7]) were 37.3%, 17.2% and 31.4%, respectively. Moreover, the response vs control in vivo at 30 mg/kg in assay [2] (setting [5]) came to 20.6%; in assay [2] (setting [6]), 23.6%; in assay [2] (setting [7]), 118%. Moreover, the “Final Tumor Area ± S.E.” value in assay [3] (Test I, 3 mg/kg daily by gavage, 4 weeks, control 741 ± 193) stood at 162 ± 93 mm^2; in assay [3] (Test I, 10 mg/kg daily by gavage, 4 weeks, control 741 ± 193), 74 ± 45 mm^2; in assay [3] (Test I, 30 mg/kg daily by gavage, 4 weeks, control 741 ± 193) it was 6 ± 6 mm^2.

Take `OC1(c2ccc(Cl)cc2Cl)c2ccccc2-c2ncncc21` (centres unmarked) [Example 19]: the EC50 in assay [1] is 255 nM. For the same compound, the response vs control in vivo at 3 mg/kg in assay [2] (setting [5]) is 69.6%; in assay [2] (setting [6]) it was 78.3%; in assay [2] (setting [7]), 116%. Also, the response vs control in vivo at 30 mg/kg in assay [2] (setting [5]) amounted to 42.8%; in assay [2] (setting [6]), 60%; in assay [2] (setting [7]) it was 75.4%.

For `Fc1ccc2c(c1)-c1ncncc1C2c1ccc(C(F)(F)F)cc1` (centres unmarked) [Example 5, 8-fluoro-5-[4-(trifluoromethyl)phenyl]-5H-indeno[1,2-d]pyrimidine], the EC50 in assay [1] was found to be 50 nM. In assay [2] (setting [5]), the response vs control in vivo at 3 mg/kg worked out at 47.3% and the response vs control in vivo at 30 mg/kg is 22.8%.

On to `Fc1ccc(C2c3ccc(F)cc3-c3ncncc32)cc1` (centres unmarked) [Example 6, 8-fluoro-5-(4-fluorophenyl)-5H-indeno[1,2-d]pyrimidine], for which, in assay [1], the EC50 was 24 nM. For the same compound, the values for the response vs control in vivo at 3 mg/kg in assay [2] (setting [5]), in assay [2] (setting [6]) and in assay [2] (setting [7]) were 0.7%, 10.2% and 70.3%, respectively. The values for the response vs control in vivo at 30 mg/kg in assay [2] (setting [5]), in assay [2] (setting [6]) and in assay [2] (setting [7]) were 6.9%, 2.9% and 57.1%, respectively. The “Final Tumor Area ± S.E.” value is listed as 109 ± 62 mm^2 in assay [3] (Test III, 10 mg/kg daily by gavage, 6 weeks, control 2053 ± 778) and 393 ± 254 mm^2 in assay [3] (Test III, 30 mg/kg daily by gavage, 6 weeks, control 2053 ± 778).

Turning to `CCC1(c2ccc(N)cc2)CCC(=O)NC1=O` (centres unmarked) [aminoglutethimide], the “effect in treatment of breast cancer” value in assay [4] is “beneficial effect in treatment of breast cancer”.
